The values below come from PubChem BioAssay AID743098 (Vanderbilt Specialized Chemistry Center, 2013).

The test has as its target Muscarinic acetylcholine receptor M1 (Homo sapiens) (UniProt P11229). Put plainly: M1 receptor allosteric modulation check, selectivity assay for M5 NAM discovery project, cell-based, human M1 (AID 743098). The settings on record: CHO-K1 hM1 calcium flux, Fluo-4, ACh EC20; at 30 µM; stronger effect = lower value.

SMILES strings stand for the structures. Active and inactive are the calls of the source. The rule behind the calls is not given here.

Sequence of Muscarinic acetylcholine receptor M1 (Homo sapiens) (P11229 whole entry, looked up): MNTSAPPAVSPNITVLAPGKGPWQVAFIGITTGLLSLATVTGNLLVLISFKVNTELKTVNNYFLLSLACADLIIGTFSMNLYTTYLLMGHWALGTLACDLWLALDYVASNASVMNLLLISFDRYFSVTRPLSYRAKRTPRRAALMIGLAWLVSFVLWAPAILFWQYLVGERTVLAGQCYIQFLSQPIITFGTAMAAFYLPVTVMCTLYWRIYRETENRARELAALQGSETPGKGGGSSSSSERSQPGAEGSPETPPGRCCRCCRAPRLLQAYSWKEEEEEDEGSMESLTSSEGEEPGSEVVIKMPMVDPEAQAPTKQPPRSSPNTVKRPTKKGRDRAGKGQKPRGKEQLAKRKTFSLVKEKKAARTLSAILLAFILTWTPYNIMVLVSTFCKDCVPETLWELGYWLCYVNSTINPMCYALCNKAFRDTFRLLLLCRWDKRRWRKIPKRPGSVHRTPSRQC

As for `O=C(c1ccc(F)cc1)N1CCN2C(=O)c3ccccc3C12c1ccccc1` (stereo not given), the response, % of max ACh was 83.6% (inactive).

For `O=C(c1ccc(F)c(F)c1)N1CCN2C(=O)c3ccccc3C12c1ccccc1` (stereo not given), the response, % of max ACh is 87.2% (inactive).

Take `O=C(c1ccc(F)c(F)c1)N1CCN2C(=O)c3ccccc3C12c1ccc(Cl)cc1` (stereo not given): the response, % of max ACh was 80.5% (inactive).

Consider `O=C(c1ccc(F)c(F)c1)N1CCN2C(=O)c3ccccc3[C@@]12c1ccc(Cl)cc1`, for which the response, % of max ACh is 66.4% (inactive).

Consider `O=C(c1cc(F)cc(F)c1)N1CCN2C(=O)c3ccccc3C12c1ccc(Cl)cc1` (stereo not given), for which the response, % of max ACh is 79.9% (inactive).
